Patent US20230173070A1, “METHODS AND SYSTEMS FOR ENHANCING DELIVERY OF THERAPEUTIC AGENTS TO BIOFILMS USING LOW BOILING POINT PHASE CHANGE CONTRAST AGENTS” (The University of North Carolina at Chapel Hill, priority 2020, published 2023)
Structures can show the parent of a compound that is named as a salt.

How the values were obtained:
[1] = tested on: MRSA biofilms (USA300 LAC); experiment: MRSA biofilm assay, antibiotics alone, survivors enumerated by plating; type: cell-based, S. aureus; details: antibiotic alone at clinically achievable concentration (Cmax), 24 hours of drug treatment of mature biofilm, FIG. 2A
Method: Antibiotics were chosen based on clinical relevance or previously reported anti-biofilm efficacy in vitro. Mature MRSA biofilms (USA300 LAC) were cultured for 24 hours in tissue culture treated plates before the addition of antibiotics. Following 24 hours of drug treatment, biofilms were washed, and survivors were enumerated by plating.
(§1) MRSA strain LAC biofilms were cultured overnight in brain-heart infusion (BHI) media in 12-well (FIGS. 2A and 2B) or 24-well (FIG. 2C) tissue culture treated plates. Biofilms were washed and treated with antibiotics. Where indicated, plates were transferred to a custom-built temperature-controlled 37° C. water bath alignment setup. PCCA were added and 30 s ultrasound exposure was applied at indicated pressures and 20% duty cycle (FIG. 2B) or 10% duty cycle (FIG. 2C). After 24 hours, biofilms were washed, sonicated for disruption and surviving cells were enumerated by serial dilution plating. Survivors were presented as log10 CFU/ml. The averages of n=3 biologically independent samples are shown. The error bars represent the standard deviation. Statistical significance was determined using a one-way analysis of variance (ANOVA) with Dunnett's (FIG. 2A) or Sidak's multiple comparison test (FIGS. 2B and 2C). **, ***, **** denotes P<0.005, P<0.0005, P<0.0001, respectively. LEV, levofloxacin; GENT, gentamicin; TOB, tobramycin; MUP, mupirocin; VAN, vancomycin; LIN, linezolid, RIF, 10 μg/ml rifampicin; ns, not significant; US-PCCA, ultrasound-stimulated phase change contrast agents.
Biofilm assays were performed using the USA300 MRSA strain LAC. It is a highly characterized community-acquired MRSA (CA-MRSA) strain isolated in 2002 from an abscess of an inmate in Los Angeles County jail in California^67. LAC was cultured overnight (18 h) in brain heart infusion (BHI) media (Oxoid) in biological triplicates. Each culture was diluted 1:150 in fresh media and 2 or 3 ml was added to the wells of 24-well or 12-well tissue culture treated plates (Costar), respectively. Biofilms were covered with Breathe-Easier sealing strips (Sigma) and incubated at 37° C. for 24 h. Biofilms were carefully washed twice with PBS and fresh BHI media containing antibiotics was added. Biofilms were covered and incubated at 37° C. for 24 h. Biofilms were carefully washed twice with PBS before dispersal in a sonicating water bath (5 min) and vigorous pipetting. Surviving cells were enumerated by serial dilution and plating. […] For daptomycin activity, the media was supplemented with 50 mg/L of Ca^2+ ions. Where indicated tobramycin was supplemented with 30 μg/ml rhamnolipids^22 (50/50 mix of mono- and di-rhamnolipids, Sigma). Where indicated biofilms were treated with PCCA and ultrasound. For crystal violet staining, biofilms were carefully washed twice with PBS, and dried in a 65° C. oven for 1 h. Biofilms were stained with 1 ml 0.4% crystal violet for 5 min, and washed 3× with PBS. Wells were photographed, and stain was solubilized with 2 ml 5% acetic acid and absorbance measured at 570 nm.

MRSA strain LAC biofilms = experiment: MRSA biofilm assay with antibiotics plus PCCA and ultrasound (US-PCCA), survivors enumerated by plating; type: cell-based, S. aureus; details: for increase in killing of biofilm-associated cells by US-PCCA: vs antibiotic alone, 10% duty cycle, FIG. 2C; for increase in killing of biofilm-associated cells by US-PCCA / enhancement of tobramycin efficacy in the presence of PCCAs: 30 s ultrasound; for enhancement of tobramycin efficacy in the presence of PCCAs: 20% duty cycle, FIG. 2B
Method: Next, we tested the ability of 30 second (s) US-PCCA treatment to potentiate tobramycin efficacy. […] We hypothesized that US-PCCA might improve tobramycin penetration into biofilms and increase its efficacy. Mature biofilms were washed and transferred to a custom-built temperature-controlled 37° C. water bath alignment setup (FIG. 1B). Tobramycin and PCCAs were added and ultrasound applied at a range of rarefactional pressures (300-1200 kPa).
as §1
MRSA strain LAC biofilms were cultured overnight in brain-heart infusion (BHI) media in 24-well tissue culture treated plates. Biofilms were washed and treated with antibiotics and transferred to a custom-built temperature-controlled 37° C. water bath alignment setup. PCCAs were added and 30 s ultrasound exposure was applied at 300 kPa or 600 kPa (FIG. 3B and 3C) and 10% duty cycle. After 24 h, biofilms were washed, sonicated for disruption and surviving cells were enumerated by serial dilution plating (FIG. 3A) or stained with crystal violet (FIG. 3B). The averages of n=6 biologically independent samples are shown. The error bars represent the standard deviation. Statistical significance was determined using a one-way analysis of variance (ANOVA) with Dunnett's multiple comparison test (a) or multiple unpaired t-test (2-tailed) (FIG. 3C). *, **, **** denotes P<0.05, P<0.005, P<0.0001, respectively. TOB, 58 μg/ml tobramycin; RL, 30 μg/ml rhamnolipids; DAP, 100 μg/ml daptomycin; LIN, 15 μg/ml linezolid; RIF, 10 μg/ml rifampicin; ADEP, 5 μg/ml acyldepsipeptide; ns, not significant; US-PCCA, ultrasound-stimulated phase change contrast agents.
Biofilm assays were performed using the USA300 MRSA strain LAC. It is a highly characterized community-acquired MRSA (CA-MRSA) strain isolated in 2002 from an abscess of an inmate in Los Angeles County jail in California^67. LAC was cultured overnight (18 h) in brain heart infusion (BHI) media (Oxoid) in biological triplicates.

| Molecule | reduction in surviving biofilm cells [1] | other results |
| --- | --- | --- |
| gentamicin | no efficacy | – |
| CN[C@H](CC(C)C)C(=O)N[C@H]1C(=O)N[C@@H](CC(N)=O)C(=O)N[C@H]2C(=O)N[C@H]3C(=O)N[C@H](C(=O)N[C@H](C(=O)O)c4cc(O)cc(O)c4-c4cc3ccc4O)[C@H](O)c3ccc(c(Cl)c3)Oc3cc2cc(c3O[C@@H]2O[C@H](CO)[C@@H](O)[C@H](O)[C@H]2O[C@H]2C[C@](C)(N)[C@H](O)[C@H](C)O2)Oc2ccc(cc2Cl)[C@H]1O [vancomycin, vancomycin hydrochloride] | significant reduction | increase in killing of biofilm-associated cells by US-PCCA (MRSA strain LAC biofilms): 93% |
| CC(=O)NC[C@H]1CN(c2ccc(N3CCOCC3)c(F)c2)C(=O)O1 [linezolid] | significant reduction | – |
| C[C@H]1COc2c(N3CCN(C)CC3)c(F)cc3c(=O)c(C(=O)O)cn1c23 [levofloxacin] | no efficacy | – |
| CCCCCC/C=C\CCCCCCCC(=O)O [Palmitoleic acid, palmitoleic acid] | – | vancomycin killing of biofilms (MRSA strain LAC biofilms; 50 μg/ml vancomycin, 30 μg/ml palmitoleic acid, with US-PCCA (30 s, 1 MHz, 600 kPa, 10% duty cycle), FIG. 12): drastically improves vancomycin killing |
| NC[C@H]1O[C@H](O[C@H]2[C@H](O)[C@@H](O[C@H]3O[C@H](CO)[C@@H](O)[C@H](N)[C@H]3O)[C@H](N)C[C@@H]2N)[C@H](N)C[C@@H]1O [Tobramycin, tobramycin] | significant reduction | enhancement of tobramycin efficacy in the presence of PCCAs (MRSA strain LAC biofilms; 300 kPa): significantly enhanced; enhancement of tobramycin efficacy in the presence of PCCAs (MRSA strain LAC biofilms; 600 kPa): significantly enhanced; enhancement of tobramycin efficacy in the presence of PCCAs (MRSA strain LAC biofilms; 1200 kPa): significantly enhanced |
| C/C(=C\C(=O)OCCCCCCCCC(=O)O)C[C@@H]1OC[C@H](C[C@@H]2O[C@H]2[C@@H](C)[C@H](C)O)[C@@H](O)[C@H]1O [mupirocin] | significant reduction | increase in killing of biofilm-associated cells by US-PCCA (MRSA strain LAC biofilms): 41% |
